Measurements from US20250304623A1, “PEPTIDES FOR INTRACELLULAR DELIVERY” (UNIVERSIDADE DE SANTIAGO DE COMPOSTELA, priority 2022, published 2025).
Starred links: 1 amine or outer side, 2 acyl side, 3 side chain; linkers in the order of their positions; H or OH if unused. Residues, ends and D or L forms follow the SMILES beside them. Groups on a side chain read outwards from the residue. *: point of attachment. Glutaryl = O=C(CCCC(=O)[*:2])[*:1]; X1 = CCCC/C=C\CCCCCCCC=NN*

Legend:
mice [1] = experiment: In vivo FLuc mRNA delivery, i.m. injection, bioluminescence imaging
Experimental: In vivo bioluminescence imaging (BLI) enables localization and quantification of expression following mRNA delivery in living animals.
The inventors evaluated the mRNA delivery efficiency of amphiphile by i.m. injections of an amphiphile-complexed FLuc mRNA in anesthetized mice using BLI. Amphiphilic molecule stock solutions were prepared in DMSO as described above and diluted in a suitable buffer, such as PBS, or phosphate buffer enriched with inorganic salts. The solutions of mRNA/amphiphile complexes were freshly prepared prior to in vivo experiments. Amphiphile solutions in a suitable buffer, such as PBS, or phosphate buffer enriched with inorganic salts, were mixed with mRNA solutions in a suitable buffer, such as PBS, or phosphate buffer enriched with inorganic salts (1:1 volume ratio, final amount of mRNA per mice=5 μg/mouse). The mixture was shaken for 30 min at room temperature before injection. For each mouse, 5 μg mRNA was complexed with the best candidates obtained from the in vitro experiments, 7.3(Leu-His) with myristoleyl aldehyde (7.3(Leu-His) M) (FIG. 7) or with palmitoleyl aldehyde (7.3(Leu-His) PA) (FIG. 8), and administered by i.m. injection in the right flank in 50 μL of a suitable buffer, such as PBS, or phosphate buffer enriched with inorganic salts. As control, 5 μg of naked mRNA was injected in three mice. Luciferase expression was evaluated over 48 h, starting at 1 h after the administration of mRNA complexes. […] In contrast, i.m. injections of naked mRNA afforded only low levels of luciferase expression, as measured by photon flux, in all mice. The experiment was performed in, at least, triplicates (3 mice per condition).
After obtaining the conditions providing the highest expression, a second round of i.m. delivery of FLuc mRNA was performed to further optimize the formulation of the complexes. […]

mice [2] = experiment: In vivo FLuc mRNA delivery, i.v. injection, concentrated formulation, BLI; settings: 125 μM
Experimental: Amphiphile stock solutions were prepared in DMSO as described above, but in this case, the amphiphile was contacted directly with the solution of nucleic acid cargo in a suitable buffer, such as PBS, or phosphate buffer enriched with inorganic salts, without any predilution step of the amphiphile's DMSO solution in a suitable aqueous buffer. Delivery efficiency of mRNA by i.v. administration route was determined by bioluminescence imaging (BLI). […] Luciferase expression was evaluated over 24 h, starting at 1 h after the administration of mRNA complexes. After that time, mice were sacrificed, and each organ was analysed individually using bioluminescence imaging (BLI) for quantification of the expression. […] Transfection results with the optimal volume ratios (125 or 250 μM final amphiphile concentration) and expression quantification in organs for candidates 7.2 DO, 7.2 M, 9.2 DO and 9.2 M are presented in FIGS. 12A, 12B, 11A, 11B, 13A, 13B, 20A and 20B respectively.
FIGS. 19A and 19B show in vivo transfection experiments in mice using amphiphiles comprising peptide 13.2 with oleyl aldehyde (13.2 O). These figures show representative bioluminescence images of mice and the extracted organs following i.v. (intravenous) injection of FLuc mRNA/amphiphile 13.2 O complexes (125 and 250 μM of 13.2 O were used, as indicated) at different times (1 h, 4 h, 7 h and 24 h). […]

In the case of `CCCC/C=C\CCCCCCCC=NNC(=O)CCCC(=O)NCCCC[C@H](NC(=O)[C@H](CCCCNC(=O)CCCC(=O)NN=CCCCCCCC/C=C\CCCC)NC(=O)[C@H](CCCNC(=N)N)NC(=O)[C@H](Cc1c[nH]cn1)NC(=O)[C@H](CCCCNC(=O)CCCC(=O)NN=CCCCCCCC/C=C\CCCC)NC(=O)[C@H](CCCNC(=N)N)NC(C)=O)C(=O)N[C@@H](Cc1c[nH]cn1)C(N)=O` [7.3(Leu-His) M] (Ac-RK([Glutaryl-X1])HRK([Glutaryl-X1])K([Glutaryl-X1])H-NH2), the “conditions giving highest bioluminescence (FLuc expression)” value (mice [1]; 2.5 μM amphiphile, 1.25, 3 or 5 μg/mouse FLuc mRNA) was “achieved with the complexes formed by 2.5 μM amphiphile and 5 μg/mouse of FLuc mRNA”, the “luciferase activity at the site of injection” value (mice [1]; 5 μg FLuc mRNA) was “High levels of luciferase activity” and the “time of peak luciferase expression” value (mice [1]; 5 μg FLuc mRNA, all concentrations tested (2.5, 5, 10 μM)) was 7 h. For the same compound, the “effect of DMSO:aqueous volume ratio on bioluminescence” value (mice [2]; ratios 1:100, 1:200, 1:400) was 1:100 (DMSO:aqueous) ratios showed the highest bioluminescence values, with up to one order of magnitude luminescence enhancement as compared to 1:200 ratio and the biodistribution of bioluminescence (mice [2]; concentrated formulation, 5 μg mRNA/mouse) was “a preferred spleen biodistribution of the bioluminescence was observed”.
